Laboratory results as given in ChEMBL document CHEMBL1201862, “PubChem BioAssay data set” (2004).
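Method: 48-hour compound exposure of cells in 96-well plates, five concentrations, linear interpolation of endpoints. GI50 marks 50% less growth.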 The source made the active and inactive calls. Rule as the data show it: active = GI50 up to about 1.1 µM and inactive = higher.

What was measured:
Test in all cases: inhibition of tumour cell growth, NCI panel, 48 h
ACHN = test system: ACHN
Malme-3M = test system: Malme-3M
NCI-H23 = test system: NCI-H23
HCC 2998 = test system: HCC 2998
KM-20L2 = test system: KM-20L2
SK-MEL-2 = test system: SK-MEL-2
SR = test system: SR
NCI-H522 = test system: NCI-H522
HOP-62 = test system: HOP-62
RXF 393 = test system: RXF 393
HOP-92 = test system: HOP-92
UACC-257 = test system: UACC-257
CCRF-CEM = test system: CCRF-CEM
U-251 = test system: U-251
HT-29 = test system: HT-29
OVCAR-4 = test system: OVCAR-4

Measured: GI50

Cn1c(C2CCCc3c2c2ccccc2n3C)cc2ccccc21 (centres undefined)
inactive: ACHN > 318 µM | Malme-3M 20.5 µM | NCI-H23 40.2 µM | HCC 2998 186 µM | KM-20L2 179 µM | SK-MEL-2 85.7 µM | SR 71.9 µM | NCI-H522 40.4 µM | HOP-62 286 µM | RXF 393 95.1 µM | HOP-92 1.5 µM | UACC-257 90.2 µM | CCRF-CEM 140 µM | U-251 174 µM | HT-29 83 µM

C=CCN1C(=O)C(=O)N(CC=C)C(=O)C1=O
inactive: Malme-3M > 100 µM | NCI-H23 > 100 µM | HCC 2998 > 100 µM | KM-20L2 > 100 µM | SR > 100 µM | NCI-H522 > 100 µM | OVCAR-4 > 100 µM | HOP-62 > 100 µM | RXF 393 > 100 µM | HOP-92 > 100 µM | UACC-257 > 100 µM | CCRF-CEM > 100 µM | U-251 > 100 µM | HT-29 > 100 µM

Cc1c(C(=O)C/C(=N\O)C(=O)Nc2cc(Cl)c(Cl)cc2Cl)[n+]([O-])c2ccccc2[n+]1[O-]
inactive: ACHN 17.5 µM | Malme-3M 9.14 µM | NCI-H23 20.9 µM | HCC 2998 7.06 µM | KM-20L2 15.9 µM | SK-MEL-2 15.2 µM | SR 24.2 µM | NCI-H522 3.96 µM | OVCAR-4 9.53 µM | HOP-62 23.3 µM | RXF 393 22.5 µM | HOP-92 19.2 µM | UACC-257 7.85 µM | CCRF-CEM 32.7 µM | U-251 11 µM | HT-29 15.2 µM

Cc1c2c(ccc3ccccc32)c[n+]2ccccc12
inactive: ACHN 44.4 µM | Malme-3M 2.25 µM | NCI-H23 4.15 µM | HCC 2998 9.46 µM | KM-20L2 12.6 µM | SK-MEL-2 15.8 µM | SR 4.16 µM | NCI-H522 4.79 µM | OVCAR-4 12 µM | HOP-62 3.23 µM | HOP-92 40.6 µM | UACC-257 10.2 µM | CCRF-CEM 11 µM | U-251 2.03 µM | HT-29 49.7 µM

COc1ccc(C(=O)Nc2ccccc2C#N)cc1
inactive: ACHN > 100 µM | Malme-3M > 100 µM | NCI-H23 > 100 µM | KM-20L2 > 100 µM | SK-MEL-2 > 100 µM | SR > 100 µM | OVCAR-4 > 100 µM | HOP-62 > 100 µM | RXF 393 > 100 µM | HOP-92 > 100 µM | UACC-257 > 100 µM | CCRF-CEM > 100 µM | U-251 > 100 µM | HT-29 > 100 µM
